Reference: patent publication US8258099B2, “Pin1-modulating compounds and methods of use thereof” (Max-Planck-Gesellschaft zur Foerderung der Wissenschaften …, priority 2004, dated 2012)
Square brackets hold non-standard residues; d marks the D form. Peptide text beside a SMILES is read from it. d(pT) = C[C@H](OP(=O)(O)O)[C@@H](N)C(=O)O; 2Nal = N[C@@H](Cc1ccc2ccccc2c1)C(=O)O; Pip = O=C(O)[C@@H]1CCCCN1

Assays:
full length hPin1 = biological target: T1, full length hPin1 (Homo sapiens, UniProt Q13526); assay: Isothermal titration calorimetry (ITC), full length hPin1; type: binding
T1 construct: The protease free assay ensures reliable measurement of IC50 values for the full-length hPin1
T1 sequence (Q13526 whole entry): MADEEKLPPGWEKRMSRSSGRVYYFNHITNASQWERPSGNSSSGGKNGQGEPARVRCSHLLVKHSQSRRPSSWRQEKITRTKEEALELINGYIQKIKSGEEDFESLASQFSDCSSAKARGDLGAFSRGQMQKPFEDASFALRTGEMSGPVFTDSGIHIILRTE
Experimental: FIGS. 3A-B depicts a thermodynamic characterization of the binding of peptide 17 towards full length hPin1 by isothermal titration calorimetry (ITC). FIG. 3A depicts peaks that represent the heat evolved after injection of peptide 17 into the sample cell containing hPin1. After the 11th injection only the heat of dilution is observed. The experiment was performed at 10 C. FIG. 3B depicts integrals of the corresponding peaks of panel A are plotted against the molar ratio of peptide 17 and hPin1. The solid line represents a nonlinear least squares fit analysis of the binding heat assuming a single binding site model with the following parameters: ΔHbind=−4561±36 cal/mol, TΔSbind=5433±529 cal/mol, n=0.96 (binding stoichiometry) and KAss=5.18×10^7±7×10^6 M^−1 (association constant).
Calorimetric experiments were performed using a VP-ITC titration calorimeter (MicroCal, Inc, Northampton, Mass.) at 10° C. All solutions were degassed under vacuum prior to use. Solutions of hPin1 and hPin1 PPIase domain were dialyzed against 10 mM Hepes (pH 7.8). The protein concentration in the sample cell was adjusted to 6.5 μM using the same batch of buffer. Protein concentrations were determined as described above. The volume of the protein solution in the sample cell was 1.4 ml. The injection syringe was filled with 300 μl solution of peptide 17 (see table III) (250 μM in the same batch of buffer as used for dialyses). Each titration experiment consisted of a single 1 μl injection followed by 16 identical injections of 5 μl solution of peptide 17.
In principle, minimally four forms of a competing substrate in the presence of hPin1 have to be considered, the free cis and trans isomers together with two Michaelis complexes. This four-site exchange model of PPIase catalysis involves understanding predisposing factors of the stability of hPin1/substrate complexes, expected to be weaker, than the stability for those formed by phosphopeptides lacking substrate properties. The consequent increase in inhibitory potency could be realized by a transition state destabilizing substitution in peptide 15. Previous studies have shown that following C^α-stereocenter inversion of a substrate at the P1 position the parvulins fully retain substrate-like active site affinity for the derivatives while catalytic rate acceleration is abolished (Schiene et al., 1998). […] To optimize solute diffusion after mechanical injection of the Pin1 binding peptides into the viscous Xenopus laevis egg cytosol, the molecular weight of 1376.5 for peptide 16 was reduced to 823.8 for peptide 17. Following chain truncation peptide 17 maintained high affinity for Pin1 (Table III). To ensure domain selectivity, the binding of peptide 17 towards hPin1 was characterized using the isothermal titration calorimetry (ITC). […] The dissociation constant determined with ITC is in the same range as obtained in the protease-free PPIase assay (Table III).

[1] = Stability against cellular phosphatases and proteases in HeLa cell lysate; type: in vitro ADME
Experimental: FIG. 4 depicts the stability of peptide 17 against cellular phosphatases and proteases. Peptide 17 was incubated for 3 hours in HeLa cell lysate in the absence of phosphatase and protease inhibitors. The mixture was then analyzed by capillary electrophoresis (short dashed line). As controls, the untreated peptide 17 (solid line) and its nonphosphorylated derivative (dotted line) were used. The temperature of the capillary thermostating system was kept at 16° C. Separation buffer was 50 mM sodium phosphate, pH 7.0. Signals were detected at 220 nm.
Peptide 17 was incubated with HeLa cell lysate for 3 h and analyzed with capillary electrophoresis using UV detection at 220 nm on a P/ACE MDQ (Beckman Coulter, Palo Alto, Calif.) system. Fused-silica capillaries (Polymicro Technologies) of 40 cm length at an operation voltage of 20 kV were used. As references, untreated peptide 17 and its nonphosphorylated derivative were used. The samples were hydrodynamically injected with 3.45 kPa for 10 s. 50 mM sodium phosphate buffer (pH 7.0) was used as separation buffer. The system temperature was kept at 16° C.
The stability of peptides 15 and 17 in cytoplasmic extracts from HeLa cells was investigated using MALDI-TOF mass spectrometry and capillary electrophoresis, respectively. In the cytosolic incubation mixture, streptavidin sepharose beads served to isolate peptide 15 fragments after prolonged incubation. […] Therefore, phosphopeptides are useless for evaluating Pin1 functions in vivo unless dephosphorylation can be avoided.

[2] = ITC, 10° C., single binding site model

## CC(=O)N[C@@H](Cc1ccccc1)C(=O)N[C@@H](C(=O)N1CCCC[C@H]1C(=O)N[C@@H](Cc1ccc2ccccc2c1)C(=O)N[C@@H](CCC(N)=O)C(N)=O)[C@H](C)OP(=O)(O)O [Peptide 17, Ac-Phe-D-Thr(PO3H2)-Pip-Nal-Gln-NH2] (Ac-F[d(pT)][Pip][2Nal]Q-NH2)
Full length hPin1
  Kd: 19.3 ± 2.6 nM
Full length hPin1; [2]
  KAss (association constant): 5.18e+07 ± 7e+06 M⁻¹
  binding enthalpy ΔHbind: -4.561 ± 0.036 kcal/mol
  binding entropy TΔSbind: 5.433 ± 0.529 kcal/mol
  n (binding stoichiometry): 0.96
Full length hPin1; Pin1
  fold tighter binding of D isomer compared to L isomer: 30 fold
[1]; 3 hours of incubation, no phosphatase and protease inhibitors, capillary electrophoresis
  stability against HeLa cell lysate: complete stability
[1]; discussion statement (FIG. 4)
  stability in cytosol: sufficiently stable
